Measured values as given in US9827217B2, “Pharmaceutically acceptable salts of B-guanidinopropionic acid with improved properties and uses thereof” (Rgenix, Inc., priority 2015, dated 2017).

Key:
Assay type in all cases: physicochemical
[1] = Stability of free β-GPA at 40° C. at 75% humidity; details: 40° C. at 75% humidity after 4 weeks
[2] = Solubility of β-GPA in water
[3] = Flowability measurement using Hanson Flodex unit; details: density and Hanson Flodex data
Source text: A cylindrical vessel is secured to the stand and above that a funnel is also secured such that the bottom of the funnel is close to the vessel. A powder load of ≈50-60 g is then poured through the funnel into the middle of the cylinder. The lever device is pulled to open the hole in the disk quickly and without vibration. If a powder slowly flows through the small-diameter holes, leaving a cavity shaped like an upside-down, truncated cone, the test is considered positive. If a powder flocculates in bulk and falls abruptly, forming a cylindrical cavity, the test is considered negative. […] If the experiment is negative, the powder is tested again with a disk having a larger hole.

[4] = Dynamic vapor sorption (moisture uptake)
Protocol: Samples were analyzed using an Aquadyne DVS-2 gravimetric water sorption analyzer. The relative humidity was adjusted between 2-95% and the weight of the sample was continuously monitored and recorded.
[…]: β-GPA maleate (1:1) Form II, β-GPA fumarate (1:1), β-GPA maleate (2:1), β-GPA succinate (2:1) and β-GPA oxalate (1:1) were analyzed by DVS experiment followed by XRPD analysis of the sample at the end of the experiment.
Sample 2162-64-1 was analyzed by DVS in triplicate and the post DVS samples were characterized by XRPD to identify the form at the end of the experiment.

[5] = Determination of bulk and tapped density
Protocol: The bulk density of β-GPA oxalate (Pattern 18 B), succinate (Pattern 15A), and fumarate (Pattern 7A) were determined by pouring in a known amount of salt (g) into a measuring cylinder. The volume (Vi) occupied by the salt was recorded and the bulk density (ρB) was determined using equation 1. ρB=g/Vi (1)
The tapped densities of the salts were determined using a Tap density analyzer. A known amount of salt was poured (g) into a measuring cylinder and the initial volume was recorded and tapped using a Tap density analyzer. The final volume (Vf) after tapping was recorded and the tapped density (ρT) was calculated by using equation 2. ρT=g/Vf (2)

[6] = Determination of Carr's index and Hausner ratio; details: scale of Table 5
Source text: The flow properties of β-GPA are sub-optimal. The bulk density is 0.389 g/cc and the tapped density is 0.627 g/cc. These measurements can be used to calculate the Carr's index and Hausner ratio for a substance. The Carr's index and Hausner ratio are indicators of flowability of a powder. As known in the art, e.g., as described in Carr R. L. Chem. Eng. 1965, 72, 163-168, the relationship to flowability of a powder to the Carr's index and Hausner ratio is based on the scale shown in Table 5 below.
Carr's index or Carr's compressibility index (C) is an indication of the compressibility of a powder. It can be calculated using the equation below: Carr's index(C)=100(Vi−Vf)/Vi (3)
The Hausner ratio is a number that is correlated to the flowability of a powder or granular material. It is calculated by using the equation below: Hausner ratio=Vi/Vf (4)

SMILES: N=C(N)NCCC(=O)O [β-GPA, β-Guanidinopropionic acid, reference compound]
- Degradation [1]: No degradation
- solubility [2]: > 50 mg/mL
- Flow character (summary from the experimental data) [3]: poor
- Moisture uptake during the DVS experiment ([4]; DVS, relative humidity cycled up to 95%): around 0.1%
- Solid form after the DVS experiment (XRPD) ([4]; XRPD of post DVS sample): No change in the solid form
- Bulk density (ρB) [5]: 0.389 g/cc
- Tapped density (ρT) ([5]; Tap density analyzer): 0.627 g/cc
- Flow character by Carr's index [6]: Very poor (32-37)
